The values below come from patent US9346741B2, “Polyamine transport selective therapeutic agents with enhanced stability” (University of Central Florida Research Foundation, Inc., priority 2012, dated 2016).

As usually defined, the viability is a read-out of living cells in per cent, often relative to untreated cells. High values mean less harm to the cells, low ones more harm to the cells.

Each structure is given as a SMILES string. Like-named read-outs stand apart in the source and are kept apart here.

Series [1] has as its system CHO cells. The experiment in a line: cells. The format is cell-based. The settings on record: Cricetulus griseus, CHO, 48 h at 37° C. An excerpt: (§1) CHO cells were chosen along with a mutant cell line (CHO-MG*) to comment on how the synthetic conjugates gain access to the cells.^2c-e, 6 As discussed earlier, the CHO-MG cell line is polyamine-transport deficient and represents a model for alternative modes of entry (other than PTS) including passive diffusion or use of another transporter. The CHO cell line on the other hand, represents cells with high polyamine transport activity.^7, 10c A comparison of toxicity in these two CHO cell lines allowed for a screen that would detect selective use of the polyamine transporter. This is seen where high utilization of the PTS would be very toxic to CHO cells, however, there would not be the same level of toxicity found in CHO-MG cells.^2c-e, 6 Ultimately, a CHO-MG/CHO IC50 can be determined where a high ratio would be achieved for highly PTS selective compounds.
(§2) CHO and CHO-MG cells were grown in RPMI 1640 medium supplemented with 10% fetal calf serum and 1% penicillin/streptomycin. Note: the media must contain L-proline (2 μg/mL) for proper growth of the CHO-MG cells. MALME-3M cells were grown in RPMI 1640 medium supplemented with 10% FBS and 1% penicillin/streptomycin. […] Cells in early to mid-log phase were used.
(§3) Cell growth was assayed in sterile 96-well microtiter plates (Costar 3599, Corning, N.Y., USA). CHO and CHO-MG* cells were plated at 10,000 cells/mL. MALME-3M and MALME-3 cells were plated at 5,000 cells/mL. Drug solutions (10 μL per well) of appropriate concentration were added after an overnight incubation for each CHO cell line (90 μL). 48 h MALME-3M experiments were conducted using 10% Nu-Serum IV, and 96 h MALME-3M and MALME-3 experiments were conducted using 10% FBS. After exposure to the drug for 48 h (CHO, CHO-MG*, and MALME-3M) or 96 h (MALME-3M and MALME-3), cell growth was determined by measuring formazan
(§4) formation from 3-(4,5-dimethylthiazol-2-yl)-5-(3-carboxymethoxyphenyl)-2-(4-sulphenyl)-2H-tetrazolium) inner salt (MTS) using a SynergyMx Biotek microplate reader for absorbance ([…]) measurements.^24

In series [2] the test system is MALME-3M (melanoma) vs MALME-3 (normal) cells. The series can be described thus: MALME-3/MALME-3M IC50 ratio, a measure of selectivity. The format is cell-based, human. The settings on record: 96 h; 1 mM AG. An excerpt:
These matched cell lines provided a method to assess PTS selectivity for the cancer line (MALME-3M) over the non-cancerous cell line (MALME-3).

The subject of series [3] is MALME-3M cells. The experiment in a line: Spermidine rescue experiments in MALME-3M cells. The format is cell-based, human. The settings on record: drug at its IC50 concentration, co-dosed 10 μM spermidine; cell line not given. How it is done:
(§5) In order to validate that these drugs were toxic due to their use of the polyamine transport system, spermidine rescue experiments were conducted. Spermidine is a native polyamine and uses the PTS for cell entry. High concentrations of spermidine should outcompete the PTS-targeting drugs for cell entry. In this regard, spermidine when dosed at a non-toxic concentration should rescue the cells from the toxic effects of the PTS targeting agents. […] Both the anthryl and naphthyl systems when dosed at their IC50 concentrations gave >92% viability at 10 μM spermidine validating their use of the PTS. Rescue was observed from the initial 50% viability to >92% viability after co-dosing 10 μM spermidine.
(§6) As stated above, in an effort to determine if the cytotoxicities seen for compounds 6-8 were polyamine transport related, MALME-3M and MALME-3 were dosed near the IC50 value of each drug. These cells were also treated with increasing amounts of spermidine to see if it could outcompete compounds 6-8 for cellular entry and thus rescue the cells. […] This supports the premise that these compounds gain access to these cells primarily via the PTS. […] Since the viability of MALME-3M cells could be partially rescued by spermidine, compounds 8a and 8b may gain access via the PTS and via non-PTS related pathway(s).

Series [4] deals with 60 human cancer cell lines. The series can be described thus: NCI 60 cell-line screen. The settings on record: 5-dose assay. The format is cell-based.
The test system of series [5] is MALME-3M cells. The series can be described thus: Cytotoxicity IC50 determination (MTS) in MALME-3M cells. The format is cell-based, human. The settings on record: Homo sapiens, Malme-3M. How it is done: Armed with this insight, compounds 5a-8b were evaluated in the MALME-3M (melanoma) cell line and its non-cancerous counterpart MALME-3 obtained originally from the same patient. These matched cell lines provided a method to assess PTS selectivity for the cancer line (MALME-3M) over the non-cancerous cell line (MALME-3). […]
(§7) CHO and CHO-MG cells were grown in RPMI 1640 medium supplemented with 10% fetal calf serum and 1% penicillin/streptomycin. Note: the media must contain L-proline (2 μg/mL) for proper growth of the CHO-MG cells. MALME-3M cells were grown in RPMI 1640 medium supplemented with 10% FBS and 1% penicillin/streptomycin. All cells were grown at 37° C. under a humidified 5% CO2 atmosphere Aminoguanidine (1 mM) was added to the growth medium to prevent oxidation of the drugs by the enzyme (bovine serum amine oxidase) present in calf serum. Cells in early to mid-log phase were used.
as §3, §4

Series [6] concerns polyamine transport system (PTS), CHO-MG* vs CHO cells. The experiment in a line: CHO-MG*/CHO IC50 ratio, a measure of PTS selectivity. The format is cell-based, Chinese hamster. The following applies: 48 h.
From the text: Compounds with high CHO-MG/CHO IC50 ratios are considered PTS selective.
as §1

For series [7], the system named is MALME-3 cells. The experiment in a line: Cytotoxicity IC50 determination (MTS) in MALME-3 cells. The format is cell-based, human. The settings on record: Homo sapiens, MALME-3; 96 h at 37° C.; 1 mM AG; 10% FBS. How it is done:
Armed with this insight, compounds 5a-8b were evaluated in the MALME-3M (melanoma) cell line and its non-cancerous counterpart MALME-3 obtained originally from the same patient. These matched cell lines provided a method to assess PTS selectivity for the cancer line (MALME-3M) over the non-cancerous cell line (MALME-3).
as §7, §3, §4

For series [8], the system named is MALME-3 cells. The series can be described thus: Spermidine rescue experiments in MALME-3 cells. The format is cell-based, human. The settings on record: dosed near the IC50 value; increasing spermidine. How it is done:
as §5, §6

For series [9], the system named is CHO-MG* cells. The series can be described thus: Cytotoxicity IC50 determination (MTS) in polyamine-transport-deficient CHO-MG* cells. The format is cell-based, Chinese hamster. The settings on record: Cricetulus griseus, CHO-MG, 48 h at 37° C.
From the text: as §1, §2, §3, §4

In series [10] the test system is 60 human cancer cell lines. The experiment in a line: NCI 60 cell-line screen. The format is cell-based. The following applies: 10 μM; 48 h. As for the experimental part: Once compounds 6a-b, 7a-b, and 8a-8b were evaluated in CHO and CHO-MG*, these compounds were sent to the National Cancer institute (NCI) to conduct its 60 cell-line screen to determine if these compounds could also be potent anti-cancer agents for human cancer cell lines. […] As shown in FIGS. 2A-2C, dose response curves were generated based upon the 60 cell-line screen at different molar concentrations of each PTS targeting agent 6b, 7b, and 8b.
To generate FIGS. 2A-2C, the respective drug was dosed at 10 μM into each human cancer cell line and cell viability was assessed after a 48 h incubation at 37° C. in an environment of 5% CO2, 95% air and 100% relative humidity. A more descriptive methodology can be found at the NCI website: http://dtp.nci.nih.gov/branches/btb/ivclsp.html. Cell lines which gave bar graphs which extend to the right of the central line were more sensitive to the drug than cell lines which extended to the left of the center line.

Consider `CNCCCCNCCCCNCc1ccc(CNCCCCNCCCCNC)cc1` [Compound 8b, N1,N1′-(1,4-Phenylenebis(methylene))bis(N4-(4-(methylamino)butyl)butane-1,4-diamine)], for which the IC50 in [1] (1 mM AG 24 h prior to drug addition, read-out: CHO IC50 (μM) w/AG) came to 0.03 µM; in series [1] (without AG, read-out: CHO IC50 (μM) w/o AG) it was 0.041 µM; in series [5] (48 h at 37° C., 1 mM AG, 10% Nu-Serum IV, read-out: MALME-3M IC50 (μM) w/ AG), 0.007 µM; in [5] (48 h at 37° C., without AG, 10% Nu-Serum IV, read-out: MALME-3M IC50 (μM) w/o AG), 0.007 µM; in series [5] (96 h at 37° C., 1 mM AG, 10% FBS, read-out: MALME-3M IC50), 0.01 µM; in series [7], 20 nM. The IC50 in [9] (1 mM AG 24 h prior to drug addition, read-out: CHO-MG* IC50 (μM) w/AG) is 51.5 µM; in series [9] (without AG, read-out: CHO-MG* IC50 (μM) w/o AG), 54 µM. For the same compound, the “MALME-3/MALME-3M IC50 ratio” value in series [2] came to 2. For the same compound, the “viability at 10 μM spermidine” value in [3] is recorded as 75%. Besides, the “NCI 5-dose assay, MALME-3M cell line” value in series [4] was “dose dependent response”. Further, in series [6] (with 1 mM AG), the “IC50 ratio w/AG (CHO-MG*/CHO)” value is given as 1715. In series [6] (without AG), the “IC50 ratio w/o AG (CHO-MG*/CHO)” value amounted to 1316. For the same compound, the “rescue by exogenous spermidine in MALME-3” value in series [8] is given as “complete rescue”. Moreover, the “effect on breast cancer cell lines in the NCI 60 cell-line screen” value in [10] is “exhibited an anti-proliferation effect in breast cancer cell lines, particularly the T-47D cell line”. The “effect on melanoma cell lines in the NCI 60 cell-line screen” value in series [10] is “inhibited the proliferation of melanoma cell lines, particularly the MALME-3M cell line”.
